This test deals with T1, rat CB1 receptor (Rattus norvegicus, UniProt P20272).
T1 construct: contains an open reading frame of 1419 base pairs which corresponds to a protein of 473 amino acids; expressed in transfected cells; host or cells: CHOluc9 cells (CHO luciferase reporter line), stably transfected with pRc/CMV-based plasmid CMV-RH
As to the kind of experiment: CB1 luciferase reporter gene test. The following applies: CHOluc9 cells stably transfected with rat CB1, forskolin-stimulated luciferase; read-out: IC50 (nmol/l), activity in the rat CB1 receptor luciferase receptor gene test. It is filed as cell-based. The text has this:
CB1—Luciferase Reporter Gene Test
1. Cloning of the Rat Cannabinoid Receptor CB1
Total RNA from rat brain (the tissue was taken from freshly killed animals and shock-frozen in liquid nitrogen) was isolated by acidic guanidinium thiocyanate/phenol/chloroform extraction (J. Biol. Chem. 1979, 18, 5294) and converted into cDNA by means of reverse transcriptase and random primers (in each case from Invitrogen). […] This PCR product was subcloned into the TA cloning vector (Invitrogen) and the nucleotide sequence of the insert was determined by the dideoxynucleotide chain termination reaction using T7DNA polymerase (Sequenase, USA/Amersham). The insert has a length of 1477 base pairs and contains an open reading frame of 1419 base pairs which corresponds to a protein of 473 amino acids. The number of base pairs, the position of the open reading frame and the number of amino acids agree with the published sequence. […]
A general note: A reporter such as luciferase makes a cellular process visible.

The structures appear in SMILES notation.

T1 sequence (P20272 whole entry): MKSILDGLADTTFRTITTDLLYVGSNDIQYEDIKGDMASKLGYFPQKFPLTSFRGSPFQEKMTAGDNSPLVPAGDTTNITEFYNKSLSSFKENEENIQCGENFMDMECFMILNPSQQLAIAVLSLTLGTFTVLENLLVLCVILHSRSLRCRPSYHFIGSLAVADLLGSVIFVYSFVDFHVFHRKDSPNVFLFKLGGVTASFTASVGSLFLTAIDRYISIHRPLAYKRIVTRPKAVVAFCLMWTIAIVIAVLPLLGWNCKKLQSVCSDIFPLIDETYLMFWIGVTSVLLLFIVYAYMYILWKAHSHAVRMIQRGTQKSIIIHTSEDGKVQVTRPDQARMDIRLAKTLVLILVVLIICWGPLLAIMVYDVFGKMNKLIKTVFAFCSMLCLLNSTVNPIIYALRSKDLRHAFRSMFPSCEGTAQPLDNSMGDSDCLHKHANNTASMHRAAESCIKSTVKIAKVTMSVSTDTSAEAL

For the molecule `O=S(=O)(CCCC(F)(F)F)Oc1cccc(Oc2cccc3cc(CO)oc23)c1` [Example 1, 2-Hydroxymethyl-7-[3-(4,4,4-trifluorobutyl-1-sulphonyloxy)phenyl-1-oxy]-benzofuran], the IC50 amounted to 0.55 nmol/L.

For the origin of these results see patent US6727279B2, “Arylsulphonamides and analogues” (Bayer Aktiengesellschaft, priority 1998, dated 2004).
